Experimental data from BigSolDB 2.1.

CN1c2ccccc2C(=O)N2CCc3c([nH]c4ccccc34)[C@H]21
solubility (mole fraction) (in acetone, 283.15 K): 0.000192 | solubility (mole fraction) (in acetone, 288.15 K): 0.000226 | solubility (mole fraction) (in acetone, 293.15 K): 0.000267 | solubility (mole fraction) (in acetone, 298.15 K): 0.000315 | solubility (mole fraction) (in acetone, 303.15 K): 0.000364 | solubility (mole fraction) (in acetone, 308.15 K): 0.000426 | solubility (mole fraction) (in acetone, 313.15 K): 0.000491 | solubility (mole fraction) (in acetone, 318.15 K): 0.000571 | solubility (mole fraction) (in acetone, 323.15 K): 0.000651 | solubility (mole fraction) (in ethanol, 283.15 K): 5.94e-05 | solubility (mole fraction) (in ethanol, 288.15 K): 7.31e-05 | solubility (mole fraction) (in ethanol, 293.15 K): 8.95e-05 | solubility (mole fraction) (in ethanol, 298.15 K): 0.00011 | solubility (mole fraction) (in ethanol, 303.15 K): 0.000132 | solubility (mole fraction) (in ethanol, 308.15 K): 0.000157 | solubility (mole fraction) (in ethanol, 313.15 K): 0.000186 | solubility (mole fraction) (in ethanol, 318.15 K): 0.000222 | solubility (mole fraction) (in ethanol, 323.15 K): 0.000263 | solubility (mole fraction) (in isopropanol, 283.15 K): 6.79e-05 | solubility (mole fraction) (in isopropanol, 288.15 K): 8.16e-05 | solubility (mole fraction) (in isopropanol, 293.15 K): 9.91e-05 | solubility (mole fraction) (in isopropanol, 298.15 K): 0.000121 | solubility (mole fraction) (in isopropanol, 303.15 K): 0.000142 | solubility (mole fraction) (in isopropanol, 308.15 K): 0.00017 | solubility (mole fraction) (in isopropanol, 313.15 K): 0.0002 | solubility (mole fraction) (in isopropanol, 318.15 K): 0.000237 | solubility (mole fraction) (in isopropanol, 323.15 K): 0.000276 | solubility (mole fraction) (in methanol, 283.15 K): 3.43e-05 | solubility (mole fraction) (in methanol, 288.15 K): 4.34e-05 | solubility (mole fraction) (in methanol, 293.15 K): 5.4e-05 | solubility (mole fraction) (in methanol, 298.15 K): 6.72e-05 | solubility (mole fraction) (in methanol, 303.15 K): 8.31e-05 | solubility (mole fraction) (in methanol, 308.15 K): 0.000102 | solubility (mole fraction) (in methanol, 313.15 K): 0.000124 | solubility (mole fraction) (in methanol, 318.15 K): 0.000149 | solubility (mole fraction) (in methanol, 323.15 K): 0.000182
